{
  "source": "paper PMC6364417",
  "about": "“Kinase inhibitor library screening identifies synergistic drug combinations effective in sensitive and resistant melanoma cells” (Journal of Experimental & Clinical Cancer Research : CR, 2019)",
  "test_in_all_cases": "Kinase inhibitor library screening, PrestoBlue cell viability, 1 or 10 μM, 72 h",
  "key": {"501Mel cells (parental)": {"tested_on": "501Mel cells (parental)", "settings": "501Mel Parental, 72 h", "in_short": "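Single-point screen at two doses over three days. Parental and BRAF-inhibitor-resistant sublines (XP: Vemurafenib; GP: Dabrafenib) were assessed by PrestoBlue viability, reported relative to untreated cells.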"}, "[1]": {"tested_on": "501Mel-GP cells (Dabrafenib-resistant)", "settings": "501Mel GP, 72 h"}, "[2]": {"tested_on": "501Mel-XP cells (Vemurafenib-resistant)", "settings": "501Mel XP, 72 h"}, "A375 cells (parental)": {"tested_on": "A375 cells (parental)", "settings": "A375 Parental, 72 h"}, "[3]": {"tested_on": "A375-GP cells (Dabrafenib-resistant)", "settings": "A375 GP, 72 h"}, "[4]": {"tested_on": "A375-XP cells (Vemurafenib-resistant)", "settings": "A375 XP, 72 h"}, "IGR37 cells (parental)": {"tested_on": "IGR37 cells (parental)", "settings": "IGR37 Parental, 72 h"}, "[5]": {"tested_on": "IGR37-GP cells (Dabrafenib-resistant)", "settings": "IGR37 GP, 72 h"}, "[6]": {"tested_on": "IGR37-XP cells (Vemurafenib-resistant)", "settings": "IGR37 XP, 72 h"}},
  "data": [
    {"smiles": "COc1ncc(-c2ccc3nccc(-c4ccnnc4)c3c2)cc1NS(=O)(=O)c1ccc(F)cc1F", "note": "[GSK2126458]", "values": [
      {"measurement": "Cell viability in kinase inhibitor library screening, 501Mel Parental, 1μΜ", "setting": "501Mel cells (parental); 1μΜ, in %", "result": 3.1},
      {"measurement": "Cell viability in kinase inhibitor library screening, 501Mel Parental, 10μΜ", "setting": "501Mel cells (parental); 10μΜ, in %", "result": 0.9},
      {"measurement": "Cell viability in kinase inhibitor library screening, 501Mel GP, 1μΜ", "setting": "[1]; 1μΜ, in %", "result": 6.0},
      {"measurement": "Cell viability in kinase inhibitor library screening, 501Mel GP, 10μΜ", "setting": "[1]; 10μΜ, in %", "result": 0.6},
      {"measurement": "Cell viability in kinase inhibitor library screening, 501Mel XP, 1μΜ", "setting": "[2]; 1μΜ, in %", "result": 2.1},
      {"measurement": "Cell viability in kinase inhibitor library screening, 501Mel XP, 10μΜ", "setting": "[2]; 10μΜ, in %", "result": 0.8},
      {"measurement": "Cell viability in kinase inhibitor library screening, A375 Parental, 10μΜ", "setting": "A375 cells (parental); 10μΜ", "result": 3.2},
      {"measurement": "Cell viability in kinase inhibitor library screening, A375 Parental, 1μΜ", "setting": "A375 cells (parental); 1μΜ", "result": 15.7},
      {"measurement": "Cell viability in kinase inhibitor library screening, A375 GP, 1μΜ", "setting": "[3]; 1μΜ", "result": 14.4},
      {"measurement": "Cell viability in kinase inhibitor library screening, A375 GP, 10μΜ", "setting": "[3]; 10μΜ", "result": 3.9},
      {"measurement": "Cell viability in kinase inhibitor library screening, A375 XP, 1μΜ", "setting": "[4]; 1μΜ", "result": 13.7},
      {"measurement": "Cell viability in kinase inhibitor library screening, A375 XP, 10μΜ", "setting": "[4]; 10μΜ", "result": 2.8},
      {"measurement": "Cell viability in kinase inhibitor library screening, IGR37 Parental, 1μΜ", "setting": "IGR37 cells (parental); 1μΜ, in %", "result": 7.2},
      {"measurement": "Cell viability in kinase inhibitor library screening, IGR37 Parental, 10μΜ", "setting": "IGR37 cells (parental); 10μΜ, in %", "result": 0.469},
      {"measurement": "Cell viability in kinase inhibitor library screening, IGR37 GP, 10μΜ", "setting": "[5]; 10μΜ", "result": 2.7, "unit": "%"},
      {"measurement": "Cell viability in kinase inhibitor library screening, IGR37 GP, 1μΜ", "setting": "[5]; 1μΜ, in %", "result": 9.1},
      {"measurement": "Cell viability in kinase inhibitor library screening, IGR37 XP, 10μΜ", "setting": "[6]; 10μΜ", "result": 1.1, "unit": "%"},
      {"measurement": "Cell viability in kinase inhibitor library screening, IGR37 XP, 1μΜ", "setting": "[6]; 1μΜ, in %", "result": 7.6}
    ]},
    {"smiles": "CN(C)Cc1cccc(N/C(=C2\\C(=O)Nc3cc(C(=O)N(C)C)ccc32)c2ccccc2)c1", "note": "[BIX 02189]", "values": [
      {"measurement": "cell viability, 501Mel Parental, 1μΜ", "setting": "501Mel cells (parental); 1μΜ, in %", "result": 89.4},
      {"measurement": "cell viability, 501Mel Parental, 10μΜ", "setting": "501Mel cells (parental); 10μΜ, in %", "result": 89.0},
      {"measurement": "cell viability, 501Mel GP, 10μΜ", "setting": "[1]; 10μΜ, in %", "result": 90.2},
      {"measurement": "cell viability, 501Mel XP, 1μΜ", "setting": "[2]; 1μΜ, in %", "result": 98.8},
      {"measurement": "cell viability, 501Mel XP, 10μΜ", "setting": "[2]; 10μΜ, in %", "result": 82.6},
      {"measurement": "cell viability, A375 Parental, 10μΜ", "setting": "A375 cells (parental); 10μΜ, in %", "result": 86.5},
      {"measurement": "cell viability, A375 GP, 1μΜ", "setting": "[3]; 1μΜ, in %", "result": 99.5},
      {"measurement": "cell viability, A375 GP, 10μΜ", "setting": "[3]; 10μΜ, in %", "result": 79.8},
      {"measurement": "cell viability, A375 XP, 1μΜ", "setting": "[4]; 1μΜ, in %", "result": 99.2},
      {"measurement": "cell viability, A375 XP, 10μΜ", "setting": "[4]; 10μΜ, in %", "result": 88.6},
      {"measurement": "cell viability, IGR37 Parental, 1μΜ", "setting": "IGR37 cells (parental); 1μΜ, in %", "result": 100.1},
      {"measurement": "cell viability, IGR37 GP, 10μΜ", "setting": "[5]; 10μΜ", "result": 85.5, "unit": "%"},
      {"measurement": "cell viability, IGR37 GP, 1μΜ", "setting": "[5]; 1μΜ, in %", "result": 92.6},
      {"measurement": "cell viability, IGR37 XP, 10μΜ", "setting": "[6]; 10μΜ", "result": 54.9, "unit": "%"},
      {"measurement": "cell viability, IGR37 XP, 1μΜ", "setting": "[6]; 1μΜ, in %", "result": 96.6}
    ]},
    {"smiles": "CNC(=O)c1cccc(-c2ccc3c(N4CCOC[C@@H]4C)nc(N4CCOC[C@@H]4C)nc3n2)c1", "note": "[AZD2014]", "values": [
      {"measurement": "Cell viability in kinase inhibitor library screening, 501Mel Parental, 1μΜ", "setting": "501Mel cells (parental); 1μΜ, in %", "result": 39.4},
      {"measurement": "Cell viability in kinase inhibitor library screening, 501Mel Parental, 10μΜ", "setting": "501Mel cells (parental); 10μΜ, in %", "result": 8.5},
      {"measurement": "Cell viability in kinase inhibitor library screening, 501Mel GP, 1μΜ", "setting": "[1]; 1μΜ, in %", "result": 28.3},
      {"measurement": "Cell viability in kinase inhibitor library screening, 501Mel GP, 10μΜ", "setting": "[1]; 10μΜ, in %", "result": 9.6},
      {"measurement": "Cell viability in kinase inhibitor library screening, 501Mel XP, 1μΜ", "setting": "[2]; 1μΜ, in %", "result": 21.8},
      {"measurement": "Cell viability in kinase inhibitor library screening, 501Mel XP, 10μΜ", "setting": "[2]; 10μΜ, in %", "result": 3.5},
      {"measurement": "Cell viability in kinase inhibitor library screening, A375 Parental, 10μΜ", "setting": "A375 cells (parental); 10μΜ", "result": 21.1},
      {"measurement": "Cell viability in kinase inhibitor library screening, A375 Parental, 1μΜ", "setting": "A375 cells (parental); 1μΜ", "result": 34.9},
      {"measurement": "Cell viability in kinase inhibitor library screening, A375 GP, 1μΜ", "setting": "[3]; 1μΜ", "result": 33.7},
      {"measurement": "Cell viability in kinase inhibitor library screening, A375 GP, 10μΜ", "setting": "[3]; 10μΜ", "result": 19.6},
      {"measurement": "Cell viability in kinase inhibitor library screening, A375 XP, 1μΜ", "setting": "[4]; 1μΜ", "result": 29.1},
      {"measurement": "Cell viability in kinase inhibitor library screening, A375 XP, 10μΜ", "setting": "[4]; 10μΜ", "result": 19.4},
      {"measurement": "Cell viability in kinase inhibitor library screening, IGR37 Parental, 10μΜ", "setting": "IGR37 cells (parental); 10μΜ, in %", "result": 12.3},
      {"measurement": "Cell viability in kinase inhibitor library screening, IGR37 GP, 10μΜ", "setting": "[5]; 10μΜ", "result": 28.2, "unit": "%"},
      {"measurement": "Cell viability in kinase inhibitor library screening, IGR37 GP, 1μΜ", "setting": "[5]; 1μΜ, in %", "result": 63.5},
      {"measurement": "Cell viability in kinase inhibitor library screening, IGR37 XP, 10μΜ", "setting": "[6]; 10μΜ", "result": 9.4, "unit": "%"},
      {"measurement": "Cell viability in kinase inhibitor library screening, IGR37 XP, 1μΜ", "setting": "[6]; 1μΜ, in %", "result": 49.7}
    ]},
    {"smiles": "O=C(Nc1ccc(OC(F)(F)F)cc1)c1sccc1NCc1ccnc2ccccc12", "note": "[OSI-930]", "values": [
      {"measurement": "cell viability (kinase inhibitor library screening)", "setting": "501Mel cells (parental); 1μΜ", "result": 100.2, "unit": "%"},
      {"measurement": "cell viability (kinase inhibitor library screening)", "setting": "501Mel cells (parental); 10μΜ", "result": 85.8, "unit": "%"},
      {"measurement": "cell viability (kinase inhibitor library screening)", "setting": "[1]; 1μΜ", "result": 96.5, "unit": "%"},
      {"measurement": "cell viability (kinase inhibitor library screening)", "setting": "[1]; 10μΜ", "result": 73.5, "unit": "%"},
      {"measurement": "cell viability (kinase inhibitor library screening)", "setting": "[2]; 1μΜ", "result": 92.9, "unit": "%"},
      {"measurement": "cell viability (kinase inhibitor library screening)", "setting": "[2]; 10μΜ", "result": 73.6, "unit": "%"},
      {"measurement": "cell viability (kinase inhibitor library screening)", "setting": "A375 cells (parental); 10μΜ", "result": 77.6, "unit": "%"},
      {"measurement": "cell viability (kinase inhibitor library screening)", "setting": "A375 cells (parental); 1μΜ", "result": 97.9, "unit": "%"},
      {"measurement": "cell viability (kinase inhibitor library screening)", "setting": "[3]; 1μΜ", "result": 86.8, "unit": "%"},
      {"measurement": "cell viability (kinase inhibitor library screening)", "setting": "[3]; 10μΜ", "result": 55.3, "unit": "%"},
      {"measurement": "cell viability (kinase inhibitor library screening)", "setting": "[4]; 1μΜ", "result": 93.4, "unit": "%"},
      {"measurement": "cell viability (kinase inhibitor library screening)", "setting": "[4]; 10μΜ", "result": 71.6, "unit": "%"},
      {"measurement": "cell viability (kinase inhibitor library screening)", "setting": "IGR37 cells (parental); 1μΜ", "result": 96.0, "unit": "%"},
      {"measurement": "cell viability (kinase inhibitor library screening)", "setting": "IGR37 cells (parental); 10μΜ", "result": 89.7, "unit": "%"},
      {"measurement": "cell viability (kinase inhibitor library screening)", "setting": "[5]; 1μΜ", "result": 88.5, "unit": "%"},
      {"measurement": "cell viability (kinase inhibitor library screening)", "setting": "[5]; 10μΜ", "result": 90.3, "unit": "%"},
      {"measurement": "cell viability (kinase inhibitor library screening)", "setting": "[6]; 1μΜ", "result": 100.2, "unit": "%"},
      {"measurement": "cell viability (kinase inhibitor library screening)", "setting": "[6]; 10μΜ", "result": 70.0, "unit": "%"}
    ]}
  ]
}
